Experimental data taken from patent publication US20220046923A1, “HERBICIDAL CINNOLINIUM COMPOUNDS” (SYNGENTA CROP PROTECTION AG, priority 2018, published 2022).
Where a name gives a salt, the structure may show the parent alone.

Assays:
Assay in all cases: Post-emergence efficacy, glasshouse spray test
Type in all cases: in vivo
[1] = tested on: Amaranthus palmeri (AMAPA); conditions: application rate 1000 g/Ha, evaluated after 13 days; for pest or weed control at 1000 g/ha: Amaranthus palmeri, post-emergence, 312 h, read-out: Control of weed species AMAPA after post-emergence application (100=total damage to plant; 0=no damage to plant)
Protocol: (§1) Seeds of a variety of test species were sown in standard soil in pots. After cultivation for 14 days (post-emergence) under controlled conditions in a glasshouse (at 24/16° C., day/night; 14 hours light; 65% humidity), the plants were sprayed with an aqueous spray solution derived from the dissolution of the technical active ingredient formula (I) in a small amount of acetone and a special solvent and emulsifier mixture referred to as IF50 (11.12% Emulsogen EL360 TM+44.44% N-methylpyrrolidone+44.44% Dowanol DPM glycol ether), to create a 50 g/l solution which was then diluted to required concentration using 0.25% or 1% Empicol ESC70 (Sodium lauryl ether sulphate)+1% ammonium sulphate as diluent. The test plants were then grown in a glasshouse under controlled conditions (at 24/16° C., day/night; 14 hours light; 65% humidity) and watered twice daily. After 13 days the test was evaluated (100=total damage to plant; 0=no damage to plant).
(§2) Ipomoea hederacea (IPOHE), Euphorbia heterophylla (EPHHL), Chenopodium album (CHEAL), Amaranthus palmeri (AMAPA), Lolium perenne (LOLPE), Digitaria sanguinalis (DIGSA), Eleusine indica (ELEIN), Echinochloa crus-galli (ECHCG), Setaria faberi (SETFA)

[2] = tested on: Chenopodium album (CHEAL); conditions: application rate 1000 g/Ha, evaluated after 13 days; for pest or weed control at 1000 g/ha: Chenopodium album, post-emergence, 312 h, read-out: Control of weed species CHEAL after post-emergence application (100=total damage to plant; 0=no damage to plant)
Protocol: as §1, §2

[3] = tested on: Digitaria sanguinalis (DIGSA); conditions: application rate 1000 g/Ha, evaluated after 13 days; for pest or weed control at 1000 g/ha: Digitaria sanguinalis, post-emergence, 312 h, read-out: Control of weed species DIGSA after post-emergence application (100=total damage to plant; 0=no damage to plant)
Protocol: as §1, §2

[4] = tested on: Echinochloa crus-galli (ECHCG); conditions: application rate 1000 g/Ha, evaluated after 13 days; for pest or weed control at 1000 g/ha: Echinochloa crus-galli, post-emergence, 312 h, read-out: Control of weed species ECHCG after post-emergence application (100=total damage to plant; 0=no damage to plant)
Protocol: as §1, §2

[5] = tested on: Eleusine indica (ELEIN); conditions: application rate 1000 g/Ha, evaluated after 13 days; for pest or weed control at 1000 g/ha: Eleusine indica, post-emergence, 312 h, read-out: Control of weed species ELEIN after post-emergence application (100=total damage to plant; 0=no damage to plant)
Protocol: as §1, §2

[6] = tested on: Euphorbia heterophylla (EPHHL); conditions: application rate 1000 g/Ha, evaluated after 13 days; for pest or weed control at 1000 g/ha: Euphorbia heterophylla, post-emergence, 312 h, read-out: Control of weed species EPHHL after post-emergence application (100=total damage to plant; 0=no damage to plant)
Protocol: as §1, §2

[7] = tested on: Ipomoea hederacea (IPOHE); conditions: application rate 1000 g/Ha, evaluated after 13 days; for pest or weed control at 1000 g/ha: Ipomoea hederacea, post-emergence, 312 h, read-out: Control of weed species IPOHE after post-emergence application (100=total damage to plant; 0=no damage to plant)
Protocol: as §1, §2

[8] = tested on: Lolium perenne (LOLPE); conditions: application rate 1000 g/Ha, evaluated after 13 days; for pest or weed control at 1000 g/ha: Lolium perenne, post-emergence, 312 h, read-out: Control of weed species LOLPE after post-emergence application (100=total damage to plant; 0=no damage to plant)
Protocol: as §1, §2

[9] = tested on: Setaria faberi (SETFA); conditions: application rate 1000 g/Ha, evaluated after 13 days; for pest or weed control at 1000 g/ha: Setaria faberi, post-emergence, 312 h, read-out: Control of weed species SETFA after post-emergence application (100=total damage to plant; 0=no damage to plant)
Protocol: as §1, §2

SMILES | pest or weed control at 1000 g/ha [1] [%] | pest or weed control at 1000 g/ha [2] [%] | pest or weed control at 1000 g/ha [3] [%] | pest or weed control at 1000 g/ha [4] [%] | pest or weed control at 1000 g/ha [5] [%] | pest or weed control at 1000 g/ha [6] [%] | pest or weed control at 1000 g/ha [7] [%] | pest or weed control at 1000 g/ha [8] [%] | pest or weed control at 1000 g/ha [9] [%] | Control of weed species AMAPA after post-emergence application (100=total damage to plant; 0=no damage to plant) [1] | Control of weed species CHEAL after post-emergence application (100=total damage to plant; 0=no damage to plant) [2] | Control of weed species DIGSA after post-emergence application (100=total damage to plant; 0=no damage to plant) [3] | Control of weed species ECHCG after post-emergence application (100=total damage to plant; 0=no damage to plant) [4] | Control of weed species ELEIN after post-emergence application (100=total damage to plant; 0=no damage to plant) [5] | Control of weed species EPHHL after post-emergence application (100=total damage to plant; 0=no damage to plant) [6] | Control of weed species IPOHE after post-emergence application (100=total damage to plant; 0=no damage to plant) [7] | Control of weed species LOLPE after post-emergence application (100=total damage to plant; 0=no damage to plant) [8] | Control of weed species SETFA after post-emergence application (100=total damage to plant; 0=no damage to plant) [9]
COC(=O)CCC[n+]1ccc2ccccc2n1 [Compound A16, methyl 4-cinnolin-2-ium-2-ylbutanoate 2,2,2-trifluoroacetate] | 50 | 70 | 40 | 50 | 60 | 40 | 10 | 20 | 50 | – | – | – | – | – | – | – | – | –
O=C(O)CCC[n+]1ccc2ccccc2n1 [Compound A17] | – | – | – | – | – | – | – | – | – | 70 | 60 | 40 | 30 | 60 | 40 | 30 | 40 | 40
N[C@@H](CCC[n+]1ccc2ccccc2n1)C(=O)[O-].O=C(O)C(F)(F)F [Compound A18] | – | – | – | – | – | – | – | – | – | 60 | 100 | 40 | 30 | 90 | 20 | 30 | 30 | 20
O=S(=O)([N-]CC[n+]1ccc2ccccc2n1)C(F)(F)F [Compound A19, 2-cinnolin-2-ium-2-ylethyl(trifluoromethylsulfonyl)azanide] | 10 | 10 | 10 | 10 | 0 | 20 | 30 | 0 | 10 | – | – | – | – | – | – | – | – | –
c1ccc2n[n+](Cc3nnn[n-]3)ccc2c1 [Compound A20] | 30 | 10 | 20 | 20 | 20 | 70 | 0 | 10 | 10 | – | – | – | – | – | – | – | – | –
CN(C)S(=O)(=O)[N-]C(=O)C[n+]1ccc2ccccc2n1 [Compound A21, (2-cinnolin-2-ium-2-ylacetyl)-(dimethylsulfamoyl)azanide] | 10 | 50 | 10 | 30 | 0 | 70 | 20 | 0 | 0 | – | – | – | – | – | – | – | – | –
O=S(=O)([O-])CC[n+]1ccc2cccc(Cl)c2n1 [Compound A22] | 70 | 70 | 50 | 40 | 70 | 70 | 20 | 20 | 30 | – | – | – | – | – | – | – | – | –
N[C@@H](C[n+]1ccc2ccccc2n1)C(=O)[O-] [Compound A23, (2S)-2-amino-3-cinnolin-2-ium-2-yl-propanoic Acid 2,2,2-trifluoroacetate] | 60 | 30 | 40 | 30 | 20 | 30 | 20 | 10 | 40 | – | – | – | – | – | – | – | – | –
O=S(=O)([O-])CC[n+]1ccc2ccccc2n1 [Compound A24, 2-cinnolin-2-ium-2-ylethanesulfonate] | 60 | 60 | 80 | 40 | 80 | 70 | 80 | 40 | 60 | – | – | – | – | – | – | – | – | –
O=S(=O)([O-])CCCC[n+]1ccc2ccccc2n1 [Compound A25] | 50 | 60 | 20 | 0 | 60 | 30 | 50 | 50 | 30 | – | – | – | – | – | – | – | – | –
O=S(=O)([O-])OCC[n+]1ccc2ccccc2n1 [Compound A26] | 100 | 70 | 70 | 30 | 70 | 90 | 70 | 60 | 60 | – | – | – | – | – | – | – | – | –
O=S(=O)([O-])OCCC[n+]1ccc2ccccc2n1 [Compound A27] | 100 | 90 | 70 | 50 | 80 | 60 | 50 | 40 | 70 | – | – | – | – | – | – | – | – | –
O=S(=O)([O-])CC(O)C[n+]1ccc2ccccc2n1 (stereo not drawn) [Compound A28] | 90 | 70 | 60 | 40 | 80 | 80 | 60 | 60 | 50 | – | – | – | – | – | – | – | – | –
CS(=O)(=O)[N-]C(=O)CCC[n+]1ccc2ccccc2n1 [Compound A30] | 70 | 60 | 20 | 10 | 20 | 50 | 10 | 10 | 20 | – | – | – | – | – | – | – | – | –
O=S(=O)([O-])OC[n+]1ccc2ccccc2n1 [Compound A31, cinnolin-2-ium-2-ylmethyl hydrogen sulfate] | 30 | 20 | 0 | 0 | 0 | 30 | 30 | 0 | 0 | – | – | – | – | – | – | – | – | –
